We go through 5 molecules from patent US20250009692A1, “Micronutrient composition to prevent and reverse protein glycation during oxidative stress in human” (priority 2023, published 2025).

Data set [1] has as its system subunit I of Complex IV (COX-I). Description: Mitobiogenesis In-Cell ELISA, COX-I levels in H9c2 cells. In kind it is cell-based, Rat. To be noted: H9c2 heart muscle cells, 24 hours treatment; FIG. 7.
Experimental: (§1) Mitobiogenesis: MitoBiogenesis™ In-Cell ELISA Kit (Colorimetric) was purchased from Abcam (Cambridge, UK). H9c2 Cells were grown to confluency in 96 well plates and treated with test ingredients for 24 hours at 37° C. Media was removed and cells were washed with Phosphate Buffered Saline provided in the kit. The cells were then fixed and processed as per the protocol provided with the kit. This assay was used to quantify two mitochondrial proteins: subunit I of Complex IV (COX-I) and the 70 kDa subunit of Complex II (SDH-A). No treatment control was used to show relative protein levels in each case.
Data set [2] relates to Microglial Cells (IMG) exposed to Hydrogen Peroxide. Description: Cell Protection from Oxidative Stress (Alamar Blue viability). To be noted: IMG cells pretreated 24 hours, H2O2 1 hour, 24 hours recovery; FIG. 8. In kind it is cell-based, mice. The source says:
Cell Lines: Rat Cardiomyoblasts (H9c2) were obtained from ATCC (Virginia, USA). […] Cells were maintained in Dulbecco's Modified Eagle's Medium (DMEM) from Thermofisher (MA, USA) supplemented with 10% Fetal Bovine Serum (FBS) from Thermofisher (MA, USA) and 1% Penicillin-Streptomycin (PS) from MilliporeSigma (MA, USA). Microglial Cells (IMG) were obtained from Kerafast (MA, USA). It is an immortalized microglial cell line isolated from the brains of adult mice. Cells were maintained in DMEM supplemented with 10% FBS and 1% PS.
Cell Protection from Oxidative Stress: IMG cells were grown to confluency and pretreated with test compounds for 24 hours at 37° C. Media was removed and cells were exposed to Hydrogen Peroxide for 1 hour at 37° C. After one hour, H2O2 was removed and cells were incubated in DMEM supplemented with 1% BSA for a further 24 hours at 37° C. to allow them to stabilize. Subsequently, cell viability was assessed using Alamar Blue Cell Viability Reagent from Thermofisher (MA, USA). Alamar Blue Reagent is an oxidized form of redox indicator that is blue in color. When incubated with viable cells, the reagent changes color from blue to red and can be measured by absorbance at 570 nm.
We tested protective effects of individual natural compounds and their combinations in microglial cells exposed to oxidative stress generated by hydrogen peroxide.

The subject of data set [3] is Succinate Dehydrogenase (SDH) subunit A. The data set can be described thus: Mitobiogenesis In-Cell ELISA, SDH-A levels in H9c2 cells. The class given is cell-based, Rat. As to conditions: H9c2 cardiac muscle cells, 24 hours treatment; FIG. 6. For orientation: An ELISA detects its analyte on a solid surface through an enzyme-linked reagent.
Experimental: as §1

As for `N[C@@H](CS)C(=O)O` [cysteine, L Cysteine], the “increase of Cox-1 levels compared to control” value in data set [1] is 41%.
In the case of `O=C([O-])CC(O)C(=O)[O-].[Mg+2]` (stereo not drawn) [magnesium malate, Magnesium Malate], the “survival of cells exposed to hydrogen peroxide (viable cells)” value (“survival of cells exposed” below) in data set [2] was “about 50%”. For the same molecule, the “increase of SDH levels compared to control” value in data set [3] came out at 86%.
Regarding `CSCC[C@H](N)C(=O)O` [methionine, Methionine], in data set [2], the “survival of cells exposed” value is given as “about 50%”.
Take `CC(=O)C(=O)[O-].[Na+]` [sodium pyruvate, Sodium Pyruvate]: the “increase of SDH levels compared to control” value in data set [3] is listed as 54%.
In the case of Magnesium Citrate, the “survival of cells exposed” value in data set [2] is reported as “about 50%”.
